# Assay results from EP4635969A1, “NOVEL GLUCOCORTICOID, METHOD FOR PREPARING SAME, AND USE THEREOF” (Tianjin Pharmaceutical Biotechnology Co., Ltd., priority 2022, dated 2024).
# Tests used:
# psoriasis model mice = assay: Psoriasis experiment (imiquimod model): skin lesion (PASI) score; type: in vivo; settings: compared with the model group
# Method: Positive control drug: Fluticasone Propionate Cream (specification: 0.05% × 15 g, Zhejiang Xianju Pharmaceutical Co. Ltd., Lot No. 211106), stored at room temperature protected from light until use.
# Adult mice were selected, and the skin of 2 cm × 3 cm on the back of mice was locally depilated. The mice in the model group and drug administration group were applied with 62.5 mg of 5% imiquimod cream on their back for modeling, while the mice in the blank control group were applied with medical petroleum jelly on their back daily. The above procedures were performed once a day for 7 consecutive days.
# The mice in the drug administration group were applied with the corresponding drugs on their backs daily at a dose of 0.2 g per mouse, while the blank control group and the model group were only applied with 0.2 g of the test sample drug matrix. One hour after drug administration, the drugs were wiped off with sterile cotton swabs, followed by the application of imiquimod. The above procedures were performed once a day for 7 consecutive days.
# Referring to the clinical Psoriasis Area and Severity Index (PASI) scoring criteria, erythema, scaling, and thickness at the skin lesion sites were evaluated on a 0-4 scale on day 8 of modeling, and the total score was obtained by summing the three items.
# • (1) Erythema: a score of 0 points indicates no erythema, a score of 1 point indicates erythema appearing light red, a score of 2 points indicates erythema appearing red, a score of 3 points indicates erythema appearing dark red, and a score of 4 points indicates erythema appearing extremely deep red; • (2) Scaling: a score of 0 points indicates no scaling on the surface, a score of 1 point indicates partial skin lesions covered with scaling, a score of 2 points indicates most skin lesions covered with scaling, a score of 3 points indicates almost all skin lesions covered with scaling in layers, and a score of 4 points indicates all skin lesions covered with scaling; • (3) Thickness: a score of 0 points indicates skin lesions flush with normal skin, a score of 1 point indicates skin lesions slightly elevated above normal skin surface, a score of 2 points indicates moderate elevation of skin lesions, a score of 3 points indicates thickened skin lesions with obvious elevation, and a score of 4 points indicates highly thickened skin lesions with prominent elevation.
# Statistical analysis was performed using SPSS software, and the results were expressed as mean ± standard deviation. One-way ANOVA was used for intergroup comparisons. For data with homogeneous variance, the LSD test was used; for data with heterogeneous variance, the Dunnett-t test was used. A value of P < 0.05 was considered statistically significant.
# [1] = tested on: intraocular pressure of guinea pigs; assay: Adverse reactions of continuous ocular administration: intraocular pressure; type: in vivo
# In short: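 Guinea pigs (300-350 g, both sexes) dosed bilaterally with 5 mg/5 mL ophthalmic suspensions, saline as blank; intraocular pressure measured before dosing and on days 7, 14, 21 and 28.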
# [2] = tested on: dry eye syndrome model New Zealand rabbits; assay: Dry eye syndrome experiment (benzalkonium chloride model): tear film break-up time; type: in vivo, male New Zealand White rabbits; settings: for tear film break-up time: compared with the model group
# Method: (§1) Positive control drug: Fluorometholone Eye Drops (specification: 5 mL/5 mg; Santen Pharmaceutical (CHINA) Co., Ltd.; Lot No.: 1FM6625) was used as the positive control drug and stored at room temperature protected from light until use.
# Thirty male New Zealand White rabbits (conventional grade) were prepared. Six rabbits were randomly selected as the blank control group, and the remaining animals were administered 0.1% benzalkonium chloride to the left eye twice daily (morning and evening) , 10 µL/animal each time. On day 6 of modeling, tear secretion was measured using phenol red cotton threads to determine whether the model was successfully established. […] During the administration, all animals except the blank control group were administered 10 µL of 0.1% benzalkonium chloride to the left eye once daily to maintain dry eye symptoms..
# • Test time: D3, D7, D15; • Test animals: All animals were tested before grouping; all enrolled surviving animals were tested after administration; • Test method: 1% Fluorescein sodium was dropped onto the inner side of the rabbit's lower eyelid, 10 µL/animal. The rabbit's eyes were closed and gently massaged to evenly distribute the fluorescein sodium on the eye surface. The rabbit's eyes were then sequentially placed under a slit lamp. The tear film break-up time was observed and recorded as the time from eye opening to the appearance of the first dark spot. If no dark spot appeared, the time was calculated as 60 seconds.
# (§2) The normality and homogeneity of variance were tested by Levene's test. If there was no statistical significance (P > 0.05), one-way analysis of variance (ANOVA) was used for statistical analysis. If ANOVA was statistically significant (P ≤ 0.05), LSD test (parametric method) was used for comparative analysis. If the variance was heterogeneous (P ≤ 0.05), Kruskal-Wallis test was used. If the Kruskal-Wallis test was statistically significant (P ≤ 0.05), Dunnett's test (nonparametric method) was used for comparative analysis.
# [3] = Pharmacokinetic (PK) experiment in rats; type: in vivo, male SD rats; settings: same experimental conditions
# Method: Pharmacological Example 11. Pharmacokinetic (PK) Experiment in Rats
# The solution was prepared before administration.
# Animals: 6 male SD rats, SPF grade (Beijing Vital River Laboratory Animal Technology Co., Ltd.).
# Animal grouping: The animals were weighed prior to administration, and the dosage was calculated based on body weight. The animals in the oral administration group were fasted overnight (10-14 hours) before administration, and food was reintroduced 4 hours post-administration. Table 23. Animal grouping and drug administration dosages for pharmacokinetic (PK) experiment in rats
# Blood collection time points: Blood was collected from the jugular vein at 2 min, 5 min, 15 min, 30 min, 1 h, 2 h, 4 h, 8 h, and 24 h after administration. Approximately 0.25 mL of blood was collected for each sample, anticoagulated with heparin sodium, and then placed on ice immediately.
# Plasma sample processing: Blood samples were placed on ice after collection and centrifuged to separate plasma within 1 hour (centrifugation conditions: 6000 rpm, 3 minutes, 2-8 °C ). Plasma samples were stored in a -80°C freezer before analysis.
# Data processing: Pharmacokinetic parameters were calculated using Phoenix WinNonlin 8.2.0 based on the plasma drug concentration data at different time points.
# [4] = target: T1, mineralocorticoid receptor (MR) (Homo sapiens, UniProt P08235); assay: Assay for agonist activity on mineralocorticoid receptor (luciferase reporter, HEK293 cells transfected with pBIND-MR plasmid); type: cell-based; settings: for Target selectivity MR/GR: ratio of EC50 values; for target selectivity: MR/GR and PR/GR, same experimental conditions
# T1 sequence (P08235 726-984): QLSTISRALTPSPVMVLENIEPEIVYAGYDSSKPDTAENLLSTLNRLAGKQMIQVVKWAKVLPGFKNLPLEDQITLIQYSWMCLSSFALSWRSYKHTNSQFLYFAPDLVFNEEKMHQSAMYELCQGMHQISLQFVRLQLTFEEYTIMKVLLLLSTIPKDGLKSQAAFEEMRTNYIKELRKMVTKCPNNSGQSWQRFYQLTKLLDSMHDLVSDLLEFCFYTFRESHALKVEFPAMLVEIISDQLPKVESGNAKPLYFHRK
# In short: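 HEK293 cells transiently transfected with pBIND-MR or pBIND-PR, seeded in phenol red-free DMEM with 5% charcoal-stripped serum. Compounds tested as 12-point 4-fold dilutions from 50 µM in duplicate, 0.1% DMSO blank. Luciferase luminescence read, EC50 by nonlinear fit.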
# [5] = tested on: dry eye syndrome model New Zealand rabbits; assay: Dry eye syndrome experiment (benzalkonium chloride model): corneal fluorescein sodium staining; type: in vivo, male New Zealand White rabbits; settings: for inflammatory response on the ocular surface / ocular symptoms: compared with the model group
# Method: Pharmacological Example 6: Therapeutic Pharmacodynamic Experiment on Dry Eye Syndrome in New Zealand Rabbits
# as §1
# Thirty male New Zealand White rabbits (conventional grade) were prepared. Six rabbits were randomly selected as the blank control group, and the remaining animals were administered 0.1% benzalkonium chloride to the left eye twice daily (morning and evening) , 10 µL/animal each time. […] During the administration, all animals except the blank control group were administered 10 µL of 0.1% benzalkonium chloride to the left eye once daily to maintain dry eye symptoms..
# • Test time: D3, D7, D15; • Test animals: All animals were tested before grouping; all enrolled surviving animals were tested after administration; • Test method: 2 µL of 1% Fluorescein sodium was dropped into the conjunctival sac. After 5 s, the excess fluorescein was rinsed with 0.9% normal saline. The conjunctival staining was observed under a slit lamp with cobalt blue diffused light.
# as §2
# [6] = D3, 1 mg/mL, 50 µL/eye, 3 times a day for 14 days
# [7] = D7, 1 mg/mL, 50 µL/eye, 3 times a day for 14 days
# [8] = D15, 1 mg/mL, 50 µL/eye, 3 times a day for 14 days
SMILES,PASI scores (psoriasis model mice),intraocular pressure after continuous ocular administration [1],tear film break-up time [2],"pharmacokinetic properties (plasma clearance rate, systemic exposure) [3]",EC50 [4] [µM],Target selectivity MR/GR [4],inflammatory response on the ocular surface / ocular symptoms [5],target selectivity [4],"Tear film break-up time (s) D3 [2, 6] [s]","Tear film break-up time (s) D7 [2, 7] [s]","Tear film break-up time (s) D15 [2, 8] [s]","Corneal fluorescein sodium staining score D3 [5, 6]","Corneal fluorescein sodium staining score D7 [5, 7]","Corneal fluorescein sodium staining score D15 [5, 8]"
"C[C@]12C=CC(=O)C=C1[C@@H](F)C[C@H]1[C@@H]3C[C@H]4OC(c5ccc(CSC6CCOC6=O)cc5)O[C@@]4(C(=O)SCF)[C@@]3(C)C[C@H](O)[C@@]12F (stereo partly drawn) [Compound 34, S-(Fluoromethyl) (2S,6aS,6bR,7S,8aS,8bS,11aR,12aS,12bS)-2,6b-difluoro-7-hydroxy-6a,8a-dimethyl-4-oxo-10-(4-( ((2-oxotetrahydrofuran-3-yl)thio)methyl)phenyl)-1,2,4,6a,6b,7,8,8a,11a,12,12a,12b-dodecahydro-8bH-naphtho[2',1':4,5]indeno[1,2-d][1,3]dioxole-8b-carbothioate]",significantly decreased PASI scores on day 7,no abnormal intraocular pressure observed,significantly increased the tear film break-up time,pharmacokinetic properties similar to those of compound 8,> 50,> 5.0×10^5,significantly alleviated the ocular symptoms in dry eye syndrome model New Zealand rabbits,–,–,–,–,–,–,–
"C[C@]12C=CC(=O)C=C1CC[C@H]1[C@@H]3C[C@H]4OC(c5ccc(CSC6CCOC6=O)nc5)O[C@@]4(C(=O)CO)[C@@]3(C)C[C@H](O)[C@@]12Cl (stereo partly drawn) [Compound 48, (6aS,6bR,7S,8aS,8bS,11aR,12aS,12bS)-6b-Chloro-7-hydroxy-8b-(2-hydroxyacetyl)-6a,8a-dimethyl-10-(6-(((2-oxotetrahydrofuran-3-yl)thio)methyl)pyridin-3-yl)-1,2,6a,6b,7,8,8a,8b,11a,12,12a,12 b-dodecahydro-4H-naphtho[2',1':4,5]indeno[1,2-d][1,3]dioxol-4-one]",significantly decreased PASI scores on day 7,no abnormal intraocular pressure observed,significantly increased the tear film break-up time,pharmacokinetic properties similar to those of compound 8,–,–,significantly alleviated the ocular symptoms in dry eye syndrome model New Zealand rabbits,target selectivity comparable to that of compound 23,–,–,–,–,–,–
"C[C@]12C=CC(=O)C=C1CC[C@H]1[C@@H]3C[C@H]4OC(c5ccc(CSC6CCOC6=O)cn5)O[C@@]4(C(=O)CO)[C@@]3(C)C[C@H](O)[C@@]12Cl (stereo partly drawn) [Compound 51, (6aS,6bR,7S,8aS,8bS,11aR,12aS,12bS)-6b-Chloro-7-hydroxy-8b-(2-hydroxyacetyl)-6a,8a-dimethyl-10-(5-(((2-oxotetrahydrofuran-3-yl)thio)methyl)pyridin-2-yl)-1,2,6a,6b,7,8,8a,8b,11a,12,12a,12 b-dodecahydro-4H-naphtho[2',1':4,5]indeno[1,2-d][1,3]dioxol-4-one]",significantly decreased PASI scores on day 7,no abnormal intraocular pressure observed,significantly increased the tear film break-up time,pharmacokinetic properties similar to those of compound 8,–,–,significantly alleviated the ocular symptoms in dry eye syndrome model New Zealand rabbits,target selectivity comparable to that of compound 23,–,–,–,–,–,–
"C[C@]12C=CC(=O)C=C1[C@@H](F)C[C@H]1[C@@H]3C[C@H]4OC(c5ccc(CSC6CCOC6=O)cc5)O[C@@]4(C(=O)OCF)[C@@]3(C)C[C@H](O)[C@@]12F (stereo partly drawn) [Compound 36, Fluoromethyl (2S,6aS,6bR,7S,8aS,8bS,11aR,12aS,12bS)-2,6b-difluoro-7-hydroxy-6a,8a-dimethyl-4-oxo-10-(4-( ((2-oxotetrahydrofuran-3-yl)thio)methyl)phenyl)-1,2,4,6a,6b,7,8,8a,11a,12,12a,12b-dodecahydro-8bH-naphtho[2',1':4,5]indeno[1,2-d][1,3]dioxole-8b-carboxylate]",significantly decreased PASI scores on day 7,no abnormal intraocular pressure observed,significantly increased the tear film break-up time,pharmacokinetic properties similar to those of compound 8,> 50,> 4.2×10^5,significantly alleviated the ocular symptoms in dry eye syndrome model New Zealand rabbits,–,–,–,–,–,–,–
"C[C@]12C=CC(=O)C=C1CC[C@H]1[C@@H]3C[C@H]4OC(c5ccc(CSC6COC(=O)C6)cc5Cl)O[C@@]4(C(=O)CO)[C@@]3(C)C[C@H](O)[C@@]12F (stereo partly drawn) [Compound 20, (6aS,6bR,7S,8aS,8bS,11aR,12aS,12bS)-10-(2-Chloro-4-(((5-oxotetrahydrofuran-3-yl)thio)methyl)phenyl)-6b-fluoro-7-hydroxy-8b-(2-hydroxyacetyl)-6a,8a-dimethyl-1,2,6a,6b,7,8,8a,8b,11a,12,12a, 12b-dodecahydro-4H-naphtho[2',1':4,5]indeno[1,2-d][1,3]dioxol-4-one]",significantly decreased PASI scores on day 7,no abnormal intraocular pressure observed,significantly increased the tear film break-up time on day 15,pharmacokinetic properties similar to those of compound 8,–,–,significantly inhibited the inflammatory response on the ocular surface on day 15,target selectivity comparable to that of compound 23,37.00 ± 13.36,48.00 ± 9.94,48.28 ± 8.21,2.33 ± 0.82,1.5 ± 0.55,1.1 ± 0.52
"C[C@]12C=CC(=O)C=C1[C@@H](F)C[C@H]1[C@@H]3C[C@H]4OC(c5ccc(CSC6CCOC6=O)cc5)O[C@@]4(C(=O)SCC#N)[C@@]3(C)C[C@H](O)[C@@]12F (stereo partly drawn) [Compound 35, S-(Cyanomethyl) (2S,6aS,6bR,7S,8aS,8bS,11aR,12aS,12bS)-2,6b-difluoro-7-hydroxy-6a,8a-dimethyl-4-oxo-10-(4-( ((2-oxotetrahydrofuran-3-yl)thio)methyl)phenyl)-1,2,4,6a,6b,7,8,8a,11a,12,12a,12b-dodecahydro-8bH-naphtho[2',1':4,5]indeno[1,2-d][1,3]dioxole-8b-carbothioate]",significantly decreased PASI scores on day 7,no abnormal intraocular pressure observed,significantly increased the tear film break-up time,pharmacokinetic properties similar to those of compound 8,> 50,> 2.4×10^5,significantly alleviated the ocular symptoms in dry eye syndrome model New Zealand rabbits,–,–,–,–,–,–,–
"C[C@]12C=CC(=O)C=C1CC[C@H]1[C@@H]3C[C@H]4OC(c5ccc(CSC6COC(=O)C6)cc5)O[C@@]4(C(=O)CO)[C@@]3(C)C[C@H](O)[C@@]12Cl (stereo partly drawn) [Compound 26, (6aS,6bR,7S,8aS,8bS,11aR,12aS,12bS)-6b-Chloro-7-hydroxy-8b-(2-hydroxyacetyl)-6a,8a-dimethyl-10-(4-(((5-oxotetrahydrofuran-3-yl)thio)methyl)phenyl)-1,2,6a,6b,7,8,8a,8b,11a,12,12a,12b-do decahydro-4H-naphtho[2',1':4,5]indeno[1,2-d][1,3]dioxol-4-one]",significantly decreased PASI scores on day 7,no abnormal intraocular pressure observed,significantly increased the tear film break-up time,pharmacokinetic properties similar to those of compound 8,–,–,significantly alleviated the ocular symptoms in dry eye syndrome model New Zealand rabbits,target selectivity comparable to that of compound 23,–,–,–,–,–,–
